Experiment: Cytotoxicity
Format: functional, Canis lupus familiaris, MDCK
Conditions: not given

Structure (SMILES)	CC50
O=C(NCC1CC1)c1nc(-c2cnccn2)[nH]c(=O)c1O	> 60 µM
O=C(NCc1ccccc1)c1nc(-c2cnccn2)[nH]c(=O)c1O	> 60 µM
Cc1ccc(CNC(=O)c2nc(-c3cnccn3)[nH]c(=O)c2O)cc1	> 60 µM
O=C(NCc1ccc(F)cc1)c1nc(-c2cnccn2)[nH]c(=O)c1O	> 60 µM
COc1ccc(CNC(=O)c2nc(-c3cnccn3)[nH]c(=O)c2O)cc1	> 60 µM
CC(NC(=O)c1nc(-c2cnccn2)[nH]c(=O)c1O)c1ccccc1 (centres undefined)	> 60 µM
C[C@H](NC(=O)c1nc(-c2cnccn2)[nH]c(=O)c1O)c1ccccc1	> 60 µM
C[C@@H](NC(=O)c1nc(-c2cnccn2)[nH]c(=O)c1O)c1ccccc1	> 60 µM
Cc1ccc([C@@H](C)NC(=O)c2nc(-c3cnccn3)[nH]c(=O)c2O)cc1	> 60 µM
C[C@@H](NC(=O)c1nc(-c2cnccn2)[nH]c(=O)c1O)C1CCCCC1	7.1 µM
O=C(N[C@H](CO)c1ccccc1)c1nc(-c2cnccn2)[nH]c(=O)c1O	> 60 µM
O=C(NC1CCCc2ccccc21)c1nc(-c2cnccn2)[nH]c(=O)c1O (centres undefined)	10.2 µM
O=C(O)c1nc(-c2cnccn2)nc(O)c1O	> 60 µM

Same assay, conditions: Influenza A virus, MDCK

Structure (SMILES)	CC50
O=C(NCCc1ccccc1)c1nc(-c2cnccn2)[nH]c(=O)c1O	> 60 µM

Reference: ChEMBL document CHEMBL2040546, “Identification of influenza endonuclease inhibitors using a novel fluorescence polarization assay” (ACS Chem Biol, 2012)
